In patent US9067966B2, “Lupeol-type triterpene derivatives as antivirals” (priority 2009, dated 2015):
Like-named read-outs stand apart in the source and are kept apart here.

Tested on: HIV-1 strain 92-HT599
Experiment: Anti HIV-1 p24 assay, strain 92-HT599 in MT2 cells
Assay type: cell-based
Settings: for IC50: MT2 cells infected with HIV-1 92-HT599, p24, 96 hours
Experimental: MT2 cells were infected with the HIV-1 strain 92-HT599 (10TCID50/30000 cells). The infected cells are plated at the concentration of 30000 cells per well in a 96 well assay micro plate. A test compound was added to the micro plate in a defined format with the final concentration of DMSO (vehicle) being not more than 1%. Incubation was carried out in a CO2 incubator for 96 hours for viral infection. At the end of incubation period an aliquot from each well was taken for p24 estimation. The quantitation of p24 is an index for antiviral activity of the compound. Percent inhibition was calculated with reference to control values (vehicle).
P24 estimation was carried out using an Advance Biosciences kit as per the procedure as detailed by supplier.
[…] was made by dissolving test compound in DMSO. Subsequent dilutions were made with DMSO to make necessary working stocks (100×).

[1] = Human immunodeficiency virus 1, MT2 cells, HIV-1 92-HT599, p24, concentration 0.1 μM, read-out: Percent inhibition
[2] = Human immunodeficiency virus 1, MT2 cells, HIV-1 92-HT599, p24, concentration 1 μM, read-out: Percent inhibition
[3] = Human immunodeficiency virus 1, MT2, read-out: Percent inhibition

Question: Which results are given for `C=C(C)[C@@H]1CC[C@]2(C(=O)N[C@H]3C[C@@H](C(=O)N4CCCC4)C3(C)C)CC[C@]3(C)[C@H](CC[C@@H]4[C@@]5(C)CC[C@H](O)C(C)(C)[C@@H]5CC[C@]43C)[C@@H]12` [Example 14, (1R,3aS,5aR,5bR,7aR,9S,11aR,11bR,13aR,13bR)-N-((1S,3R)-2,2-dimethyl-3-(pyrrolidine-1-carbonyl)cyclobutyl)-9-hydroxy-5a,5b,8,8,11a-pentamethyl-1-(prop-1-en-2-yl)icosahydro-1H-cyclopenta[a]chrysene-3a-carboxamide]?
Answer: inhibition at 0.1 µM [1]: 71%; inhibition at 1 µM [2]: 32%

Question: What does the source list for `C=C(C)[C@@H]1CC[C@]2(C(=O)N[C@@H]3CC[C@H](CN4CCOCC4)C3)CC[C@]3(C)[C@H](CC[C@@H]4[C@@]5(C)CC[C@H](O)C(C)(C)[C@@H]5CC[C@]43C)[C@@H]12` [Example 23, (1R,3aS,5aR,5bR,7aR,9S,11aR,11bR,13aR,13bR)-9-hydroxy-5a,5b,8,8,11a-pentamethyl-N-((1R,3S)-3-(morpholinomethyl)cyclopentyl)-1-(prop-1-en-2-yl)icosahydro-1H-cyclopenta[a]chrysene-3a-carboxamide]?
Answer: inhibition at 0.1 µM [1]: 11%; inhibition at 1 µM [2]: 37%

Question: How did the inhibition at 0.1 µM [1] turn out when `C=C(C)[C@@H]1CCC2(C(=O)N3C4CCC3CC(n3c(C)nnc3C(C)C)C4)CC[C@]3(C)[C@H](CC[C@@H]4[C@@]5(C)CC[C@H](O)C(C)(C)[C@@H]5CC[C@]43C)[C@@H]12` (stereo partly drawn) [Example 25, ((1R,5aR,5bR,7aR,9S,11aR,11bR,13aR,13bR)-9-hydroxy-5a,5b,8,8,11a-pentamethyl-1-(prop-1-en-2-yl)icosahydro-1H-cyclopenta[a]chrysen-3a-yl)(3-(3-isopropyl-5-methyl-4H-1,2,4-triazol-4-yl)-8-azabicyclo[3.2.1]octan-8-yl)methanone] was run?
Answer: 33%

Question: And the inhibition at 1 µM [2]?
Answer: 25%

Question: `C=C(C)[C@@H]1CC[C@]2(C(=O)N[C@@H]3C=C[C@H](CN4CCOCC4)C3)CC[C@]3(C)[C@H](CC[C@@H]4[C@@]5(C)CC[C@H](O)C(C)(C)[C@@H]5CC[C@]43C)[C@@H]12` [Example 26, (1R,3aS,5aR,5bR,7aR,9S,11aR,11bR,13aR,13bR)-9-hydroxy-5a,5b,8,8,11a-pentamethyl-N-((1S,4R)-4-(morpholinomethyl)cyclopent-2-enyl)-1-(prop-1-en-2-yl)icosahydro-1H-cyclopenta[a]chrysene-3a-carboxamide] was tested. Which inhibition at 0.1 µM [3] did it give?
Answer: 52%

Question: What about the inhibition at 1 µM [3] of the same compound?
Answer: 53%

Question: Which results are given for `C=C(C)[C@@H]1CC[C@]2(C(=O)N[C@@H]3C[C@H](C(=O)N[C@H](C(=O)O)C(C)C)C3(C)C)CC[C@]3(C)[C@H](CC[C@@H]4[C@@]5(C)CC[C@H](O)C(C)(C)[C@@H]5CC[C@]43C)[C@@H]12` [Example 40, (S)-2-((1S,3R)-3-((1R,3aS,5aR,5bR,7aR,9S,11aR,11bR,13aR,13bR)-9-hydroxy-5a,5b,8,8,11a-pentamethyl-1-(prop-1-en-2-yl)icosahydro-1H-cyclopenta[a]chrysene-3a-carboxamido)-2,2-dimethylcyclobutanecarboxamido)-3-methylbutanoic acid]?
Answer: inhibition at 0.1 µM [1]: 13%; inhibition at 1 µM [2]: 42%

Question: How did the inhibition at 0.1 µM [1] turn out when `C=C(C)[C@@H]1CC[C@]2(C(=O)N[C@@H]3C[C@H](C(=O)N4CCCC4)C3(C)C)CC[C@]3(C)[C@H](CC[C@@H]4[C@@]5(C)CC[C@H](O)C(C)(C)[C@@H]5CC[C@]43C)[C@@H]12` [Example 44, (1R,3aS,5aR,5bR,7aR,9S,11aR,11bR,13aR,13bR)-N-((1R,3S)-2,2-dimethyl-3-(pyrrolidine-1-carbonyl)cyclobutyl)-9-hydroxy-5a,5b,8,8,11a-pentamethyl-1-(prop-1-en-2-yl)icosahydro-1H-cyclopenta[a]chrysene-3a-carboxamide] was run?
Answer: 15%

Question: And the inhibition at 1 µM [2]?
Answer: 43%

Question: How did the IC50 (Human immunodeficiency virus 1) turn out when `C=C(C)[C@@H]1CC[C@]2(C(=O)N[C@@H]3CC[C@H](CN4CCCC(C)C4)C3)CC[C@]3(C)[C@H](CC[C@@H]4[C@@]5(C)CC[C@H](OC(=O)CC(C)(C)C(=O)O)C(C)(C)[C@@H]5CC[C@]43C)[C@@H]12` (stereo partly drawn) [Example 51, 2,2-dimethyl-4-oxo-4-((1R,3aS,5aR,5bR,7aR,9S,11aR,11bR,13aR,13bR)-5a,5b,8,8,11a-pentamethyl-3a-((1R,3S)-3-((3-methylpiperidin-1-yl)methyl)cyclopentylcarbamoyl)-1-(prop-1-en-2-yl)icosahydro-1H-cyclopenta[a]chrysen-9-yloxy)butanoic acid] was run?
Answer: 1 nM

Question: `C=C(C)[C@@H]1CC[C@]2(C(=O)N[C@@H]3C[C@H](C(=O)N4CCCCC4)C3(C)C)CC[C@]3(C)[C@H](CC[C@@H]4[C@@]5(C)CC[C@H](OC(=O)[C@@H]6C[C@H](C(=O)O)C6(C)C)C(C)(C)[C@@H]5CC[C@]43C)[C@@H]12` [Example 59, (1S,3R)-3-(((1R,3aS,5aR,5bR,7aR,9S,11aR,11bR,13aR,13bR)-3a-((1R,3S)-2,2-dimethyl-3-(piperidine-1-carbonyl)cyclobutylcarbamoyl)-5a,5b,8,8,11a-pentamethyl-1-(prop-1-en-2-yl)icosahydro-1H-cyclopenta[a]chrysen-9-yloxy)carbonyl)-2,2-dimethylcyclobutanecarboxylic acid] was tested. Which IC50 (Human immunodeficiency virus 1) did it give?
Answer: 6 nM

Question: With `C=C(C)[C@@H]1CC[C@]2(C(=O)N[C@H]3C[C@@H](C(=O)N4CCOCC4)C3(C)C)CC[C@]3(C)[C@H](CC[C@@H]4[C@@]5(C)CC[C@H](OC(=O)[C@@H]6C[C@H](C(=O)O)C6(C)C)C(C)(C)[C@@H]5CC[C@]43C)[C@@H]12` [Example 61, (1S,3R)-3-(((1R,3aS,5aR,5bR,7aR,9S,11aR,11bR,13aR,13bR)-3a-((1S,3R)-2,2-dimethyl-3-(morpholine-4-carbonyl)cyclobutylcarbamoyl)-5a,5b,8,8,11a-pentamethyl-1-(prop-1-en-2-yl)icosahydro-1H-cyclopenta[a]chrysen-9-yloxy)carbonyl)-2,2-dimethylcyclobutanecarboxylic acid] as the compound, how does the IC50 (Human immunodeficiency virus 1) read?
Answer: 7 nM

Question: With `C=C(C)[C@@H]1CC[C@]2(C(=O)NC3CCC(CN4CCCCC4)C3)CC[C@]3(C)[C@H](CC[C@@H]4[C@@]5(C)CC[C@H](OC(=O)CCC(=O)O)C(C)(C)[C@@H]5CC[C@]43C)[C@@H]12` (stereo partly drawn) [Example 96, 4-oxo-4-((1R,3aS,5aR,5bR,7aR,9S,11aR,11bR,13aR,13bR)-5a,5b,8,8,11a-pentamethyl-3a-(3-(piperidin-1-ylmethyl)cyclopentylcarbamoyl)-1-(prop-1-en-2-yl)icosahydro-1H-cyclopenta[a]chrysen-9-yloxy)butanoic acid] as the compound, how does the IC50 (Human immunodeficiency virus 1) read?
Answer: 0.1 nM

Question: With `C=C(C)[C@@H]1CC[C@]2(C(=O)NC3CC(C(=O)NCCC(=O)N4CCOCC4)C3(C)C)CC[C@]3(C)[C@H](CC[C@@H]4[C@@]5(C)CC[C@H](O)C(C)(C)[C@@H]5CC[C@]43C)[C@@H]12` (stereo partly drawn) [Example 97, (1R,3aS,5aR,5bR,7aR,9S,11aR,11bR,13aR,13bR)-N-(2,2-dimethyl-3-(3-morpholino-3-oxopropylcarbamoyl)cyclobutyl)-9-hydroxy-5a,5b,8,8,11a-pentamethyl-1-(prop-1-en-2-yl)icosahydro-1H-cyclopenta[a]chrysene-3a-carboxamide] as the compound, how does the inhibition at 0.1 µM [1] read?
Answer: 37%

Question: What about the inhibition at 1 µM [2] of the same compound?
Answer: 67%

Question: What does the source list for `C=C(C)[C@@H]1CC[C@]2(C(=O)NC3CC(C(=O)NCCC(=O)N4CCCC4)C3(C)C)CC[C@]3(C)[C@H](CC[C@@H]4[C@@]5(C)CC[C@H](O)C(C)(C)[C@@H]5CC[C@]43C)[C@@H]12` (stereo partly drawn) [Example 98, (1R,3aS,5aR,5bR,7aR,9S,11aR,11bR,13aR,13bR)-N-(2,2-dimethyl-3-(3-oxo-3-(pyrrolidin-1-yl)propylcarbamoyl)cyclobutyl)-9-hydroxy-5a,5b,8,8,11a-pentamethyl-1-(prop-1-en-2-yl)icosahydro-1H-cyclopenta[a]chrysene-3a-carboxamide]?
Answer: inhibition at 0.1 µM [1]: 1%; inhibition at 1 µM [2]: 50%

Question: Which inhibition at 0.1 µM [1] does the source give for `C=C(C)[C@@H]1CC[C@]2(C(=O)N[C@@H]3CC[C@H](CN4CCC(Cc5ccccc5)CC4)C3)CC[C@]3(C)[C@H](CC[C@@H]4[C@@]5(C)CC[C@H](OC(=O)CC(C)(C)C(=O)O)C(C)(C)[C@@H]5CC[C@]43C)[C@@H]12` [Example 99, 4-((1R,3aS,5aR,5bR,7aR,9S,11aR,11bR,13aR,13bR)-3a-((1R,3S)-3-((4-benzylpiperidin-1-yl)methyl)cyclopentylcarbamoyl)-5a,5b,8,8,11a-pentamethyl-1-(prop-1-en-2-yl)icosahydro-1H-cyclopenta[a]chrysen-9-yloxy)-2,2-dimethyl-4-oxobutanoic acid] here?
Answer: 89%

Question: And the inhibition at 1 µM [2]?
Answer: 97%
